Test results published in US20060009493A1, “Indolinone hydrazides as c-Met inhibitors” (Sugen, Inc., priority 2003, published 2006).
pIC50: −log10 of the molar value. Structures can show the parent of a compound that is named as a salt.

biological target: T1, GST fusion protein containing the Met kinase domain (Homo sapiens, UniProt P08581); test: MET Transphosphorylation Assay (ELISA, poly(Glu,Tyr) 4:1 substrate); assay type: biochemical; settings: met transphosphorylation of poly(glutamic acid:tyrosine 4:1) substrate; two values in a cell separated by '/'
T1 construct: Purified GST fusion protein containing the Met kinase domain, Sugen, Inc
Experimental: MET Transphosphorylation Assay
This assay is used to measure phosphotyrosine levels on a poly(glutamic acid:tyrosine (4:1)) substrate as a means for identifying agonists/antagonists of met transphosphorylation of the substrate.
• 1. […] PBS, Gibco Catalog # 450-1300EB • 4. 50 mM HEPES • 5. […] Purified GST fusion protein containing the Met kinase domain, Sugen, Inc. • 7. TBST Buffer. • 8. 10% aqueous (MilliQue H2O) DMSO. • 9. […] 2× Kinase Dilution Buffer: for 100 ml, mix 10 mL 1M HEPES at pH 7.5 with 0.4 mL 5% BSA/PBS, 0.2 mL 0.1 M sodium orthovanadate and 1 mL 5M sodium chloride in 88.4 mL dH2O. • 11. 4×ATP Reaction Mixture: for 10 mL, mix 0.4 mL 1 M manganese chloride and 0.02 mL 0.1 M ATP in […] dH2O. • 12. 4× Negative Controls Mixture: for 10 mL, mix 0.4 mL 1 M manganese chloride in 9.6 mL dH2O.
13. […] 500 mM EDTA. • 15. Antibody Dilution Buffer: for 100 mL, mix 10 mL 5% BSA/PBS, 0.5 mL 5% Carnation Instant Milk® in PBS and 0.1 mL 0.1 M sodium orthovanadate in 88.4 mL TBST. • 16. Rabbit polyclonal antophosphotyrosine antibody, Sugen, Inc. • 17. Goat anti-rabbit horseradish peroxidase conjugated antibody, Biosource, Inc. • 18. ABTS Solution: for 1 L, mix 19.21 g citric acid, 35.49 g Na2HPO4 and 500 mg ABTS with sufficient dH2O to make 1 L. • 19. ABTS/H2O2: mix 15 mL ABST solution with 2 μL H2O2 five minutes before use. • 20. 0.2 M HCl Procedure: • 1. Coat ELISA plates with 2 μg Poly(Glu-Tyr) in 100 μL PBS, store overnight at 4° C. • 2. Block plate with 150 μL of 5% BSA/PBS for 60 min. • 3. Wash plate twice with PBS, once with 50 mM Hepes buffer pH 7.4. • 4. Add 50 μl of the diluted kinase to all wells. (Purified kinase is diluted with Kinase Dilution Buffer. Final concentration should be 10 ng/well.) • 5. Add 25 μL of the test compound (in 4% DMSO) or DMSO alone (4% in dH2O) for controls to plate. • 6. Incubate the kinase/compound mixture for 15 minutes. • 7. Add 25 μL of 40 mM MnCl2 to the negative control wells. • 8. Add 25 μL ATP/MnCl2 mixture to the all other wells (except the negative controls). Incubate for 5 min. • 9. Add 25 μL 500 mM EDTA to stop reaction. • 10. Wash plate 3× with TBST. • 11. Add 100 μL rabbit polyclonal anti-Ptyr diluted 1:10,000 in Antibody Dilution Buffer to each well. Incubate, with shaking, at room temperature for one hour. • 12. Wash plate 3× with TBST. • 13. […] Add 100 μL per well and incubate at room temperature, with shaking, for one hour. • 14. Wash plate 1× with PBS. • 15. Add 100 μl of ABTS/H2O2 solution to each well. • 16. If necessary, stop the development reaction with the addition of […] of 0.2M HCl per well. • 17.

T1 sequence (P08581 1078-1345 limits assumed): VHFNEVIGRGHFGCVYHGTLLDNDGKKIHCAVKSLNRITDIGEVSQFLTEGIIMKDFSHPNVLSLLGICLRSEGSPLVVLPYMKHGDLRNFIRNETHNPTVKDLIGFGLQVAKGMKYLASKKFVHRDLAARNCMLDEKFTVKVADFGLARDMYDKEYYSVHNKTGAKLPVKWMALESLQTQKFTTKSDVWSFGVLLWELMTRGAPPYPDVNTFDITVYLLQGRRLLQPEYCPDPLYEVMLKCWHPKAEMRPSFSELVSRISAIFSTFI

| pIC50 | Compound |
| --- | --- |
| 6.49 | O=C(Cc1ccc2c(c1)OCO2)N/N=C1\C(=O)Nc2ccc(S(=O)(=O)NCCN3CCOCC3)cc21 [Example I-31, (3Z)-3-[(2-Benzo[1,3]dioxol-5-yl-acetyl)-hydrazono]-2-oxo-2,3-dihydro-1H-indole-5-sulfonic acid (2-morpholin-4-yl-ethyl)-amide] |
| < 4.70 | O=C1Nc2ccccc2/C1=N/NC(=O)C(F)(F)c1ccc(F)cc1 [Example I-32, Difluoro-(4-fluoro-phenyl)-acetic acid [(3Z)-2-oxo-1,2-dihydro-indol-3-ylidene]-hydrazide] |
| 7.54 | O=C(Cc1ccc(O)c(Cl)c1)N/N=C1\C(=O)Nc2ccc(C(=O)O)c(Cl)c21 [Example I-37, (3Z)-4-Chloro-3-{[2-(3-chloro-4-hydroxy-phenyl)-acetyl]-hydrazono}-2-oxo-2,3-dihydro-1H-indole-5-carboxylic acid] |
| 5.89 | O=C(Cc1ccc(O)nc1)N/N=C1\C(=O)Nc2ccc(C(=O)N3CCC[C@@H]3CNC3CC3)c(Cl)c21 [Example I-45, (6-Hydroxy-pyridin-3-yl)-acetic acid [(3Z)-4-chloro-5-[(2R)-2-cyclopropylaminomethyl-pyrrolidine-1-carbonyl]-2-oxo-1,2-dihydro-indol-3-ylidene]-hydrazide] |
| 4.84 | O=C(Cc1ccc(O)cc1)N/N=C1\C(=O)Nc2c(C(=O)O)cccc21 [Example I-47, (3Z)-3-{[2-(4-Hydroxy-phenyl)-acetyl]-hydrazono}-2-oxo-2,3-dihydro-1H-indole-7-carboxylic acid] |
| 6.34 | CC(C(=O)N/N=C1\C(=O)Nc2ccc(C(=O)N3CC[C@H](N)C3)c(Cl)c21)c1ccc(F)cc1 (stereo partly drawn) [Example I-48, 2-(4-Fluoro-phenyl)-propionic acid [(3Z)-5-[(3S)-3-amino-pyrrolidine-1-carbonyl]-4-chloro-2-oxo-1,2-dihydro-indol-3-ylidene]-hydrazide trifluoroacetate] |
| 6.64 | O=C(Cc1ccc(O)cc1)N/N=C1\C(=O)Nc2ncccc21 [Example I-49, (4-Hydroxy-phenyl)-acetic acid [(3Z)-2-oxo-1,2-dihydro-pyrrolo[2,3-b]pyridin-3-ylidene)-hydrazide] |
| 4.92 | CN(C)CC#Cc1ccc2c(c1)/C(=N/NC(=O)Cc1ccc(F)cc1)C(=O)N2 [Example I-50, (4-Fluoro-phenyl)-acetic acid [(3Z)-5-(3-dimethylamino-prop-1-ynyl)-2-oxo-1,2-dihydro-indol-3-ylidene]-hydrazide] |
| 5.29 | CC(C(=O)N/N=C1\C(=O)Nc2ccc(C#CCN(C)C)cc21)c1ccc(F)cc1 (stereo not shown) [Example I-51, 2-(4-Fluoro-phenyl)-propionic acid [(3Z)-5-(3-dimethylamino-prop-1-ynyl)-2-oxo-1,2-dihydro-indol-3-ylidene]-hydrazide] |
| 6.13 | CC(C(=O)N/N=C1\C(=O)Nc2ccc(Br)cc21)c1ccc2c(c1)OCO2 (stereo not shown) [Example I-53, 2-Benzo[1,3]dioxol-5-yl-propionic acid [(3Z)-5-bromo-2-oxo-1,2-dihydro-indol-3-ylidene]-hydrazide] |
| 6.27 | COC(=O)c1cccc2c1/C(=N/NC(=O)Cc1ccc(O)cc1)C(=O)N2 [Example I-56, (3Z)-3-{[2-(4-Hydroxy-phenyl)-acetyl]-hydrazono}-2-oxo-2,3-dihydro-1H-indole-4-carboxylic acid methyl ester] |

Second part, the compound before the results:

| Compound | pIC50 |
| --- | --- |
| CC(C(=O)N/N=C1\C(=O)Nc2ccc(C(=O)N3CCC(NC4CC4)CC3)c(Cl)c21)c1ccc(F)cc1 (stereo not shown) [Example I-30, 2-(4-Fluoro-phenyl)-propionic acid [(3Z)-4-chloro-5-(4-cyclopropylamino-piperidine-1-carbonyl)-2-oxo-1,2-dihydro-indol-3-ylidene]-hydrazide] | 6.89 |
| CC(C(=O)N/N=C1\C(=O)Nc2ccc(C(=O)N3CCC(NC4CC4)CC3)c(Cl)c21)c1ccc(O)cc1 (stereo not shown) [Example I-33, 2-(4-Hydroxy-phenyl)-propionic acid [(3Z)-4-chloro-5-(4-cyclopropylamino-piperidine-1-carbonyl)-2-oxo-1,2-dihydro-indol-3-ylidene]-hydrazide] | 7.07 |
| Cn1cc(CC(=O)N/N=C2\C(=O)Nc3ccc(C(=O)O)c(Cl)c32)ccc1=O [Example I-34, (3Z)-4-Chloro-3-{[2-(1-methyl-6-oxo-1,6-dihydro-pyridin-3-yl)-acetyl]-hydrazono}-2-oxo-2,3-dihydro-1H-indole-5-carboxylic acid] | 5.68 |
| Cn1cc(CC(=O)N/N=C2\C(=O)Nc3ccc(C(=O)N4CCC(NC5CC5)CC4)c(Cl)c32)ccc1=O [Example I-35, (1-Methyl-6-oxo-1,6-dihydro-pyridin-3-yl)-acetic acid [(3Z)-4-chloro-5-(4-cyclopropylamino-piperidine-1-carbonyl)-2-oxo-1,2-dihydro-indol-3-ylidene]-hydrazide] | 5.91 |
| Cn1cc(CC(=O)N/N=C2\C(=O)Nc3ccc(C(=O)N4CCC[C@@H]4CN4CCCC4)c(Cl)c32)ccc1=O [Example I-36, (1-Methyl-6-oxo-1,6-dihydro-pyridin-3-yl)-acetic acid [(3Z)-4-chloro-2-oxo-5-[(2R)-2-pyrrolidin-1-ylmethyl-pyrrolidine-1-carbonyl]-1,2-dihydro-indol-3-ylidene]-hydrazide] | 5.38 |
| O=C(Cc1ccc(O)c(Cl)c1)N/N=C1\C(=O)Nc2ccc(C(=O)N3CCC(NC4CC4)CC3)c(Cl)c21 [Example I-38, (3-Chloro-4-hydroxy-phenyl)-acetic acid [(3Z)-4-chloro-5-(4-cyclopropylamino-piperidine-1-carbonyl)-2-oxo-1,2-dihydro-indol-3-ylidene]-hydrazide] | 7.59 |
| CC(C(=O)N/N=C1\C(=O)Nc2ccc(C(=O)NCCN3CCOCC3)c(Cl)c21)c1ccc(F)cc1 (stereo not shown) [Example I-39, (3Z)-4-Chloro-3-{[2-(4-fluoro-phenyl)-propionyl]-hydrazono}-2-oxo-2,3-dihydro-1H-indole-5-carboxylic acid (2-morpholin-4-yl-ethyl)-amide] | 6.96 |
| CC(C(=O)N/N=C1\C(=O)Nc2ccc(C(=O)N3CCC[C@@H]3CN3CCCC3)c(Cl)c21)c1ccc(F)cc1 (stereo partly drawn) [Example I-40, 2-(4-Fluoro-phenyl)-propionic acid [(3Z)-4-chloro-2-oxo-5-[(2R)-(2-pyrrolidin-1-ylmethyl-pyrrolidine-1-carbonyl)]-1,2-dihydro-indol-3-ylidene]-hydrazide] | 6.37 |
| O=C(Cc1ccc(O)nc1)N/N=C1\C(=O)Nc2ccc(C(=O)N3CCC(NC4CC4)CC3)c(Cl)c21 [Example I-44, (6-Hydroxy-pyridin-3-yl)-acetic acid [(3Z)-4-chloro-5-(4-cyclopropylamino-piperidine-1-carbonyl)-2-oxo-1,2-dihydro-indol-3-ylidene]-hydrazide] | 6.24 |
| Cn1cc(CC(=O)N/N=C2\C(=O)Nc3cc(Cl)c(C(=O)NCCN4CCOCC4)cc32)ccc1=O [Example I-46, (3Z)-6-Chloro-3-{[2-(1-methyl-6-oxo-1,6-dihydro-pyridin-3-yl)-acetyl]-hydrazono}-2-oxo-2,3-dihydro-1H-indole-5-carboxylic acid (2-morpholin-4-yl-ethyl)-amide] | 5.23 |
| CC(C(=O)N/N=C1\C(=O)Nc2c(Cl)ccc(Cl)c21)c1ccc2c(c1)OCO2 (stereo not shown) [Example I-52, 2-Benzo[1,3]dioxol-5-yl-propionic acid [(3Z)-4,7-dichloro-2-oxo-1,2-dihydro-indol-3-ylidene]-hydrazide] | 6.59 |
| CC(C(=O)N/N=C1\C(=O)Nc2ccc(NC(=O)CN3CCOCC3)cc21)c1ccc(F)cc1 (stereo not shown) [Example I-54] | 5.23 |
| CC(C(=O)N/N=C1\C(=O)Nc2ccc(NC(=O)CN3CCCC3)cc21)c1ccc(F)cc1 (stereo not shown) [Example I-55, N-((3Z)-3-{[2-(4-Fluoro-phenyl)-propionyl]-hydrazono}-2-oxo-2,3-dihydro-1H-indol-5-yl)-2-pyrrolidin-1-yl-acetamide] | 5.21 |
| O=C1Nc2c(Cl)ccc(Cl)c2/C1=N/NC(=O)C1Cc2ccccc2C1 [Example I-57] | < 4.70 |
